How the values were obtained:
[1] = tested on: PKB Ser473 phosphorylation in Rat1-myr-HA-p110 beta cells; experiment: Reverse protein array assay, PKB Ser473 phosphorylation in Rat1-myr-p110 beta cells; type: cell-based; settings: 0.5 h, pAkt Ser473, 30 minutes incubation, read-out: p-PKB IC50
In short: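 Rat1 cells expressing myristoylated HA-tagged p110 alpha, beta or delta were plated for at least 20 h, then exposed to 8-step serial compound dilutions (0.2% DMSO final) for 30 min at 37 °C. Lysates were spotted at four dilutions on protein microarrays, and relative fluorescence intensity of phospho-Ser473 PKB was calculated.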

PI3K beta = target: T1, PI3K beta (Homo sapiens, UniProt P42338); experiment: PI3K beta kinase assay (Kinase-Glo luminescence); type: biochemical
T1 construct: for the full-length p110-b subunit are generated and fused by overlapping PCR; p85(iSH2) fusion partner (see partner chain) (N); His tag (C); made in house; host or cells: baculovirus; Tn5 (Trichoplusia ni) or TiniPro insect cells
In short: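 Residual ATP after a 60 min room-temperature reaction is quantified by Kinase-Glo luminescence. Enzyme: 25 nM BV-949 (p85 iSH2–linker–full-length p110β); substrates 1 μM ATP, 10 μg/mL PI; buffer Tris pH 7.5, MgCl2, NaCl, CHAPS, DTT. Eight concentrations per compound, four-parameter logistic IC50.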

mTOR = target: T2, mTOR (Homo sapiens, UniProt P42345); experiment: Biochemical assay for m-TOR by TR-FRET; settings: 8 μM ATP, 400 nM GFP-4EBP1, 0.5 nM mTOR
T2 construct: purchased Invitrogen Corporation (Carlsbad/CA, USA) PV4753
In short: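 TR-FRET detection of pThr46 on GFP-4EBP1 (400 nM final) using Tb3+-labelled antibody (0.5 nM), added with EDTA to stop reactions. Reactions ran at rt with 0.5 nM mTOR and 8 μM ATP (final) in HEPES pH 7.5 buffer containing 10 mM MnCl2.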

T2 sequence (P42345 1360-2549 limits assumed): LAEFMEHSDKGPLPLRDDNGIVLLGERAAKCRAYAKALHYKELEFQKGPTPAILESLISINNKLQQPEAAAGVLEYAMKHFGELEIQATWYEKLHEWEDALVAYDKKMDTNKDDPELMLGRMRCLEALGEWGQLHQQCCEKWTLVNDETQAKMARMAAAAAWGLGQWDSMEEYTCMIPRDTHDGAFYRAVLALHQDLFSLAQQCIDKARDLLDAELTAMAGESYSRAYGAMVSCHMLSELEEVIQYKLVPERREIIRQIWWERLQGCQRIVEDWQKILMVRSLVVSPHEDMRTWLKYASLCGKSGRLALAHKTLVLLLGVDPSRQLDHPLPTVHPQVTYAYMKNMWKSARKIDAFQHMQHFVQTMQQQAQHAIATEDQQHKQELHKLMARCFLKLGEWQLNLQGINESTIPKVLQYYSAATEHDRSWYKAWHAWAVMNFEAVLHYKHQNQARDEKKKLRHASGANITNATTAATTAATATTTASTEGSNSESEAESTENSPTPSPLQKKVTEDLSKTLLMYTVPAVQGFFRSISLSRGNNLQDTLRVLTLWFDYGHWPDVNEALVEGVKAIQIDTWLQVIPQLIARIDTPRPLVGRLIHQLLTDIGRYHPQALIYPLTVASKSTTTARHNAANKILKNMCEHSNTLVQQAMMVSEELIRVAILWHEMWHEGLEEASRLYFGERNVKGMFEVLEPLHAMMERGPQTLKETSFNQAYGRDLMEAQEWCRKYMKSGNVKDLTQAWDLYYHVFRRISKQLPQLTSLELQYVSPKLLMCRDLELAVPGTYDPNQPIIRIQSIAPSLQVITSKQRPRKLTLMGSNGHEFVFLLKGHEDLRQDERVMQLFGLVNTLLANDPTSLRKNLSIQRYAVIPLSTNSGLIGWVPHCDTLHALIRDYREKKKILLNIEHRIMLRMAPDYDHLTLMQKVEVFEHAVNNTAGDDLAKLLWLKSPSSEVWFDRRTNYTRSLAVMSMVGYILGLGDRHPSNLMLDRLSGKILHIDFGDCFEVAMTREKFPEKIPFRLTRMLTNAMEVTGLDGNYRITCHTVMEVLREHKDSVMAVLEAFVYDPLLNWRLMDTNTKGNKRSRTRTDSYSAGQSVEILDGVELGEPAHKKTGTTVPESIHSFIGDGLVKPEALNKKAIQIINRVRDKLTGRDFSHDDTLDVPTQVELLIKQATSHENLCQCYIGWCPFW
T1 sequence (P42338 with tags, fused parts or gaps limits assumed): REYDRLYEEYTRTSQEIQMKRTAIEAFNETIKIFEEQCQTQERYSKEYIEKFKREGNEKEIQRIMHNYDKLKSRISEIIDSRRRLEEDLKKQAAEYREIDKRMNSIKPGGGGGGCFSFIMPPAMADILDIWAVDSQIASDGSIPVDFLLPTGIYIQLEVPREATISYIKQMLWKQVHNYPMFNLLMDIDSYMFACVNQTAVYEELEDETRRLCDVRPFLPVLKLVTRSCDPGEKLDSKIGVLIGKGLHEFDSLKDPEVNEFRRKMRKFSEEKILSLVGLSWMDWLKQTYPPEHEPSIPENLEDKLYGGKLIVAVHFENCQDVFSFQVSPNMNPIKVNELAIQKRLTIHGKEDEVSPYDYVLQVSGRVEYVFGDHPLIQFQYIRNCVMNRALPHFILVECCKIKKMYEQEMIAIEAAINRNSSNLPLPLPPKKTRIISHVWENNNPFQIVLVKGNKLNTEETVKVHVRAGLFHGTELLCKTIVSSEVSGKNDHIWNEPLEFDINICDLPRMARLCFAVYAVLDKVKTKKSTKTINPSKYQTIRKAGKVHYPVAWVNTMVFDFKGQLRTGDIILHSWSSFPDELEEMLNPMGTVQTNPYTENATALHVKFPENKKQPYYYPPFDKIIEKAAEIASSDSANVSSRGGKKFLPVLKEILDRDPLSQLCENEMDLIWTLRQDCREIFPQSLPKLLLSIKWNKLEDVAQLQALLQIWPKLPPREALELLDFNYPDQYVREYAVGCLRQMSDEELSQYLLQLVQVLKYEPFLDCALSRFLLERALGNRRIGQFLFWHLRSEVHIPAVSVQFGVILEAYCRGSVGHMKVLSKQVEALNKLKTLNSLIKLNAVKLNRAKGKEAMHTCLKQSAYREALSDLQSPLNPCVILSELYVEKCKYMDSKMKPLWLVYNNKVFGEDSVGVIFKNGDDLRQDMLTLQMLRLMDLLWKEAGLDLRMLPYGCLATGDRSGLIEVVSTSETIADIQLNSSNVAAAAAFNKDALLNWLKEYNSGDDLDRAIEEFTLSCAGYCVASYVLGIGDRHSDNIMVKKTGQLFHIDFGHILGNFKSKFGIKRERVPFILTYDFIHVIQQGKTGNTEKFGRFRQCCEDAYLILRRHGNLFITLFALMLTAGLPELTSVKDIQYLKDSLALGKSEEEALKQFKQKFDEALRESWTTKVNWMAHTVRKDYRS

SMILES: Cc1nn(CC(=O)N2CCC2)cc1-n1c(=O)n(C)c2cnc3ccc(-c4cncc(OC(C)C)c4)cc3c21 [Example 205, 1-[1-(2-Azetidin-1-yl-2-oxo-ethyl)-3-methyl-1H-pyrazol-4-yl]-8-(5-isopropoxy-pyridin-3-yl)-3-methyl-1,3-dihydro-imidazo[4,5-c]quinolin-2-one]
- IC50 [1]: 0.266 µM
- IC50 (PI3K beta): 0.017 µM
- IC50 (mTOR): 0.022 µM

SMILES: Cc1nn(C)cc1-n1c(=O)[nH]c2cnc3ccc(-c4cnc(N(C)C)nc4)cc3c21 [Example 207, 8-(2-Dimethylamino-pyrimidin-5-yl)-1-(1,3-dimethyl-1H-pyrazol-4-yl)-1,3-dihydro-imidazo[4,5-c]quinolin-2-one]
- IC50 [1]: 0.063 µM
- IC50 (PI3K beta): 0.167 µM
- IC50 (mTOR): 0.011 µM

SMILES: CCNc1cc(-c2ccc3ncc4c(c3c2)n(-c2c(C)nn(CCO)c2C)c(=O)n4C)cnc1C [Example 210, 8-(5-Ethylamino-6-methyl-pyridin-3-yl)-1-[1-(2-hydroxy-ethyl)-3,5-dimethyl-1H-pyrazol-4-yl]-3-methyl-1,3-dihydro-imidazo[4,5-c]quinolin-2-one]
- IC50 [1]: 0.022 µM
- IC50 (PI3K beta): 0.049 µM
- IC50 (mTOR): 0.04 µM

SMILES: CCOc1cc(-c2ccc3ncc4c(c3c2)n(-c2cn(CCO)nc2C)c(=O)n4C)cnc1C [Example 211.2, 8-(5-Ethoxy-6-methyl-pyridin-3-yl)-1-[1-(2-hydroxy-ethyl)-3-methyl-1H-pyrazol-4-yl]-3-methyl-1,3-dihydro-imidazo[4,5-c]quinolin-2-one]
- IC50 [1]: 0.038 µM
- IC50 (PI3K beta): 0.017 µM
- IC50 (mTOR): 0.011 µM

SMILES: Cc1nn(C(C)C)cc1-n1c(=O)n(C)c2cnc3ccc(-c4cncc(C(C)(C)O)c4)cc3c21 [Example 215.1, 8-[5-(1-Hydroxy-1-methyl-ethyl)-pyridin-3-yl]-1-(1-isopropyl-3-methyl-1H-pyrazol-4-yl)-3-methyl-1,3-dihydro-imidazo[4,5-c]quinolin-2-one]
- IC50 [1]: 0.048 µM
- IC50 (PI3K beta): 0.04 µM
- IC50 (mTOR): 0.035 µM

SMILES: CCn1cc(-n2c(=O)n(C)c3cnc4ccc(-c5cncc(C(C)(C)O)c5)cc4c32)c(C)n1 [Example 215.4, 1-(1-Ethyl-3-methyl-1H-pyrazol-4-yl)-8-[5-(1-hydroxy-1-methyl-ethyl)-pyridin-3-yl]-3-methyl-1,3-dihydro-imidazo[4,5-c]quinolin-2-one]
- IC50 [1]: 0.136 µM
- IC50 (PI3K beta): 0.012 µM
- IC50 (mTOR): 0.013 µM

SMILES: CNC(=O)c1cc(-c2ccc3ncc4c(c3c2)n(-c2cn(C)nc2C)c(=O)n4C)cnc1N [Example 224.1, 2-Amino-5-[1-(1,3-dimethyl-1H-pyrazol-4-yl)-3-methyl-2-oxo-2,3-dihydro-1H-imidazo[4,5-c]quinolin-8-yl]-N-methyl-nicotinamide]
- IC50 [1]: 0.059 µM
- IC50 (PI3K beta): 0.062 µM
- IC50 (mTOR): 0.034 µM

SMILES: Cc1nn(C)cc1-n1c(=O)n(C)c2cnc3ccc(-c4cnc5c(c4)C(C)(C)C(=O)N5C)cc3c21 [Example 233, 1-(1,3-Dimethyl-1H-pyrazol-4-yl)-3-methyl-8-(1,3,3-trimethyl-2-oxo-2,3-dihydro-1H-pyrrolo[2,3-b]pyridin-5-yl)-1,3-dihydro-imidazo[4,5-c]quinolin-2-one]
- IC50 [1]: 0.055 µM
- IC50 (PI3K beta): 0.039 µM
- IC50 (mTOR): 0.064 µM

SMILES: CCn1cc(-n2c(=O)n(C)c3cnc4ccc(-c5cnc(OC)nc5OC)cc4c32)c(C)n1 [Example 234.1, 8-(2,4-Dimethoxy-pyrimidin-5-yl)-1-(1-ethyl-3-methyl-1H-pyrazol-4-yl)-3-methyl-1,3-dihydro-imidazo[4,5-c]quinolin-2-one]
- IC50 [1]: 0.017 µM
- IC50 (PI3K beta): 0.119 µM
- IC50 (mTOR): 0.014 µM

SMILES: COC(C)(C)c1cncc(-c2ccc3ncc4c(c3c2)n(-c2cn(C)nc2C)c(=O)n4C)c1 [Example 239, 1-(1,3-Dimethyl-1H-pyrazol-4-yl)-8-[5-(1-methoxy-1-methyl-ethyl)-pyridin-3-yl]-3-methyl-1,3-dihydro-imidazo[4,5-c]quinolin-2-one]
- IC50 [1]: 0.094 µM
- IC50 (PI3K beta): 0.013 µM
- IC50 (mTOR): 0.049 µM

SMILES: CCNC(=O)c1cc(-c2ccc3ncc4c(c3c2)n(-c2cn(C)nc2C)c(=O)n4C)cnc1NC [Example 242.1, 5-[1-(1,3-Dimethyl-1H-pyrazol-4-yl)-3-methyl-2-oxo-2,3-dihydro-1H-imidazo[4,5-c]quinolin-8-yl]-N-ethyl-2-methylamino-nicotinamide]
- IC50 [1]: 0.094 µM
- IC50 (PI3K beta): 0.067 µM
- IC50 (mTOR): 0.058 µM

SMILES: CCOc1cc(-c2ccc3ncc4c(c3c2)n(-c2cn(C)nc2C)c(=O)n4C)cnc1CO [Example 243, 1-(1,3-Dimethyl-1H-pyrazol-4-yl)-8-(5-ethoxy-6-hydroxymethyl-pyridin-3-yl)-3-methyl-1,3-dihydro-imidazo[4,5-c]quinolin-2-one]
- IC50 [1]: 0.045 µM
- IC50 (PI3K beta): 0.047 µM
- IC50 (mTOR): 0.031 µM

SMILES: COCCOc1cc(-c2ccc3ncc4c(c3c2)n(-c2cn(C)nc2C)c(=O)n4C)cnc1CO [Example 244, 1-(1,3-Dimethyl-1H-pyrazol-4-yl)-8-[6-hydroxymethyl-5-(2-methoxy-ethoxy)-pyridin-3-yl]-3-methyl-1,3-dihydro-imidazo[4,5-c]quinolin-2-one]
- IC50 [1]: 0.386 µM
- IC50 (PI3K beta): 0.188 µM
- IC50 (mTOR): 0.079 µM

SMILES: CCn1c(=O)n(-c2cn(C)nc2C)c2c3nc(-c4ccc(OC)c(OC)c4)ccc3ncc21 [Example 251, 8-(3,4-Dimethoxy-phenyl)-1-(1,3-dimethyl-1H-pyrazol-4-yl)-3-ethyl-1,3-dihydro-1,3,5,9-tetraaza-cyclopenta[a]naphthalen-2-one]
- IC50 [1]: 0.064 µM
- IC50 (PI3K beta): 0.504 µM
- IC50 (mTOR): 0.105 µM

SMILES: COc1ccc(-c2ccc3ncc4[nH]c(=O)n(-c5cc(C)nn5C)c4c3n2)cc1OC [Example 252, 8-(3,4-Dimethoxy-phenyl)-1-(2,5-dimethyl-2H-pyrazol-3-yl)-1,3-dihydro-1,3,5,9-tetraaza-cyclopenta[a]naphthalen-2-one]
- IC50 [1]: 0.02 µM
- IC50 (PI3K beta): 0.024 µM
- IC50 (mTOR): 0.01 µM

SMILES: COc1ccc(-c2ccc3ncc4c(c3n2)n(-c2cc(C)nn2C)c(=O)n4C)cc1OC [Example 253, 8-(3,4-Dimethoxy-phenyl)-1-(2,5-dimethyl-2H-pyrazol-3-yl)-3-methyl-1,3-dihydro-1,3,5,9-tetraaza-cyclopenta[a]naphthalen-2-one]
- IC50 [1]: 0.016 µM
- IC50 (PI3K beta): 0.008 µM
- IC50 (mTOR): 0.003 µM
